Measured values reported in ChEMBL document CHEMBL1146649, “New highly active taxoids from 9 beta-dihydrobaccatin-9,10-acetals. Part 5” (2004).
In brackets after ≈: the same amount, converted by molar mass.

Legend:
PC-6 [1] = test: Concentration required to inhibit human PC-6 cell line growth by 50% at 72 hr continuous exposure; type: functional; details: PC-6, 72 h
P388 = test: Concentration required to inhibit mouse P388 cell line growth by 50% at 72 hr continuous exposure; type: functional; details: P388, 72 h
Mus musculus [2] = test: Effective dose of intravenously administered compound against B16 melanoma BL6 cells implanted into mice; range is 7.8-17.8; type: functional; details: B16, iv
PC-6 [3] = test: Concentration required to inhibit human PC-6/VCR29-9 cell line growth by 50% at 72 hr exposure; type: functional; details: PC-6, 72 h
PC-12 = test: Concentration required to inhibit human PC-12 cell line growth by 50% at 72 hr continuous exposure; type: functional; details: PC-12, 72 h
PC-6 [4] = test: Concentration required to inhibit human PC-6/VP1-1 cell line growth by 50% at 72 hr exposure; type: functional; details: PC-6, 72 h
B16 [5] = test: Effective dose of perorally administered compound against B16 melanoma BL6 cells implanted into mice; type: functional; details: Mus musculus, B16, po
Mus musculus [6] = test: Number of mice died at 5.3 mg/kg of intravenous dose of compound among the total 6 mice tested; type: functional
B16 [7] = test: Antitumor activity of 11.9 mg/kg of perorally administered compound against B16 melanoma BL6 cells implanted into mice, value reported is percent compared to control; type: functional, Mus musculus; details: route oral
Mus musculus [8] = test: Antitumor activity of 5.3 mg/kg of intravenously administered compound against B16 melanoma BL6 cells implanted into mice, value reported is percent compared to control; type: functional; details: route intravenous
Mus musculus [9] = test: Antitumor activity of 7.9 mg/kg of perorally administered compound against B16 melanoma BL6 cells implanted into mice, value reported is percent compared to control; type: functional; details: route oral
Mus musculus [10] = test: Antitumor activity of 7.9 mg/kg of intravenously administered compound against B16 melanoma BL6 cells implanted into mice, value reported is percent compared to control; type: functional; details: route intravenous
Mus musculus [11] = test: Antitumor activity of 5.3 mg/kg of perorally administered compound against B16 melanoma BL6 cells implanted into mice, value reported is percent compared to control; type: functional; details: route oral
Mus musculus [12] = test: Maximum rate of body weight loss after intravenous administration of 11.9 mg/kg of compound in mice; type: functional
Mus musculus [13] = test: Number of mice died at 17.8 mg/kg of peroral dose among the total 6 mice tested; type: functional; details: route oral
Mus musculus [14] = test: Number of mice died at 11.9 mg/kg of peroral dose, among the total 6 mice tested; type: functional; details: route oral
Mus musculus [15] = test: Maximum rate of body weight loss after peroral administration of 11.9 mg/kg of compound in mice; type: functional; details: route oral
Mus musculus [16] = test: Number of mice died at 17.8 mg/kg of intravenous dose among the total 6 mice tested; type: functional
Mus musculus [17] = test: Effective dose of intravenously administered compound against B16 melanoma BL6 cells implanted into mice; range is 5.3-11.9; type: functional; details: B16, iv
Mus musculus [18] = test: Maximum rate of body weight loss after intravenous administration of 5.3 mg/kg of compound in mice; type: functional
Mus musculus [19] = test: Number of mice died at 5.3 mg/kg of peroral dose of compound among the total 6 mice tested; type: functional; details: route oral
Mus musculus [20] = test: Maximum rate of body weight loss after peroral administration of 5.3 mg/kg of compound in mice; type: functional; details: route oral
Mus musculus [21] = test: Number of mice died at 7.9 mg/kg of peroral dose of compound among the total 6 mice tested; type: functional; details: route oral
Mus musculus [22] = test: Effective dose of perorally administered compound against B16 melanoma BL6 cells implanted into mice; range is 7.9-11.0; type: functional; details: B16, po
Mus musculus [23] = test: Maximum rate of body weight loss after peroral administration of 7.9 mg/kg of compound in mice; type: functional; details: route oral
B16 [24] = test: Antitumor activity of 11.9 mg/kg of intravenously administered compound against B16 melanoma BL6 cells implanted into mice, value reported is percent compared to control; type: functional, Mus musculus; details: route intravenous
Mus musculus [25] = test: Maximum rate of body weight loss after peroral administration of 17.8 mg/kg of compound in mice; type: functional; details: route oral
B16 [26] = test: Antitumor activity of 17.8 mg/kg of perorally administered compound against B16 melanoma BL6 cells implanted into mice, value reported is percent compared to control; type: functional, Mus musculus; details: route oral
Mus musculus [27] = test: Number of mice died at 11.9 mg/kg of intravenous dose, among the total 6 mice tested; type: functional
Mus musculus [28] = test: Number of mice died at 7.9 mg/kg of intravenous dose of compound among the total 6 mice tested; type: functional
Mus musculus [29] = test: Maximum rate of body weight loss after intravenous administration of 7.9 mg/kg of compound in mice; type: functional
Mus musculus [30] = test: Antitumor activity of 17.8 mg/kg of intravenously administered compound against B16 melanoma BL6 cells implanted into mice, value reported is percent compared to control; type: functional; details: route intravenous
Mus musculus [31] = test: Antitumor activity of 26.7 mg/kg of intravenously administered compound against B16 melanoma BL6 cells implanted into mice, value reported is percent compared to control; type: functional; details: route intravenous
Mus musculus [32] = test: Antitumor activity of 26.7 mg/kg of perorally administered compound against B16 melanoma BL6 cells implanted into mice, value reported is percent compared to control; type: functional; details: route oral
Mus musculus [33] = test: Maximum rate of body weight loss after peroral administration of 26.7 mg/kg of compound in mice; type: functional; details: route oral
Mus musculus [34] = test: Effective dose of intravenously administered compound against B16 melanoma BL6 cells implanted into mice; range is 7.9-17.8; type: functional; details: B16, iv
Mus musculus [35] = test: Number of mice died at 26.7 mg/kg of intravenous dose of compound among the total 6 mice tested; type: functional
Mus musculus [36] = test: Effective dose of perorally administered compound against B16 melanoma BL6 cells implanted into mice; range is 11.9-26.7; type: functional; details: B16, po
Mus musculus [37] = test: Number of mice died at 40.0 mg/kg of peroral dose of compound among the total 6 mice tested; type: functional; details: route oral
Mus musculus [38] = test: Maximum rate of body weight loss after peroral administration of 11.9 mg/kg of compound in mice; <0 indicates no weight loss; type: functional; details: route oral
Mus musculus [39] = test: Maximum rate of body weight loss after intravenous administration of 17.8 mg/kg of compound in mice; type: functional
Mus musculus [40] = test: Maximum rate of body weight loss after intravenous administration of 11.9 mg/kg of compound in mice; <0 indicates no weight loss; type: functional
Mus musculus [41] = test: Number of mice died at 26.7 mg/kg of peroral dose of compound among the total 6 mice tested; type: functional; details: route oral
Mus musculus [42] = test: Maximum rate of body weight loss after intravenous administration of 26.7 mg/kg of compound in mice; type: functional
Mus musculus [43] = test: Antitumor activity of 600 mg/kg of perorally administered compound against B16 melanoma BL6 cells implanted into mice, value reported is percent compared to control; type: functional; details: route oral
Mus musculus [44] = test: Antitumor activity of 100 mg/kg of perorally administered compound against B16 melanoma BL6 cells implanted into mice, value reported is percent compared to control; type: functional; details: route oral
Mus musculus [45] = test: Maximum rate of body weight loss after peroral administration of 600 mg/kg of compound in mice; <0 indicates no body weight loss; type: functional; details: route oral
Mus musculus [46] = test: Number of mice died at 100 mg/kg of peroral dose of compound among the total 6 mice tested; type: functional; details: route oral
Mus musculus [47] = test: Maximum rate of body weight loss after peroral administration of 100 mg/kg of compound in mice; type: functional; details: route oral
Mus musculus [48] = test: Number of mice died at 600 mg/kg of peroral dose of compound among the total 6 mice tested; type: functional; details: route oral
B16 [49] = test: Effective dose of intravenously administered compound against B16 melanoma BL6 cells implanted into mice; type: functional; details: Mus musculus, B16, iv
Mus musculus [50] = test: Effective dose of perorally administered compound against B16 melanoma BL6 cells implanted into mice; range is 11.9-27.6; type: functional; details: B16, po

| Structure (SMILES) | GI50 (PC-6 [1]) [ng/mL] | GI50 (P388) [ng/mL] | GI50 (PC-6 [3]) [ng/mL] | GI50 (PC-12) [ng/mL] | GI50 (PC-6 [4]) [ng/mL] | IR (B16 [7]) [%] | IR (Mus musculus [10]) [%] | Mortality (Mus musculus [13]) | Mortality (Mus musculus [14]) | Mortality (Mus musculus [16]) | IR (B16 [24]) [%] | BWLmax (Mus musculus [25]) [%] | IR (B16 [26]) [%] | Mortality (Mus musculus [27]) | Mortality (Mus musculus [28]) | BWLmax (Mus musculus [29]) [%] | further results |
| --- | --- | --- | --- | --- | --- | --- | --- | --- | --- | --- | --- | --- | --- | --- | --- | --- | --- |
| CC(=O)O[C@@]12CO[C@@H]1CC[C@@]1(C)[C@@H]3O[C@H](CN(C)C)O[C@@H]3C3=C(C)[C@@H](OC(=O)[C@H](O)[C@@H](NC(=O)OC(C)(C)C)c4nccs4)C[C@@](O)([C@@H](OCc4ccccc4)[C@@H]12)C3(C)C | 0.27 (≈ 0.315 nM) | 0.25 (≈ 0.292 nM) | 2.81 (≈ 3.28 nM) | 0.35 (≈ 0.409 nM) | 39.1 (≈ 45.7 nM) | – | – | – | – | – | – | – | – | – | – | – | ED50 (Mus musculus [2]): 17.8 mg/kg; ED50 (B16 [5]): 11.9 mg/kg |
| CC(=O)O[C@@]12CO[C@@H]1CC[C@@]1(C)[C@@H]3O[C@H](CN(C)C)O[C@@H]3C3=C(C)[C@@H](OC(=O)[C@H](O)[C@@H](NC(=O)OC(C)(C)C)c4cccc(F)n4)C[C@@](O)([C@@H](OCc4ccccc4)[C@@H]12)C3(C)C | 0.38 (≈ 0.438 nM) | 0.67 (≈ 0.772 nM) | 2.58 (≈ 2.97 nM) | 0.62 (≈ 0.714 nM) | 21.3 (≈ 24.5 nM) | 97.4 | 91.5 | 5 | 0 | 6 | 95.6 | 13.9 | 94.8 | 0 | 0 | 2.9 | Mortality (Mus musculus [6]): 0; IR (Mus musculus [8]): 67.6%; IR (Mus musculus [9]): 91.5%; IR (Mus musculus [11]): 42.4%; BWLmax (Mus musculus [12]): 12%; BWLmax (Mus musculus [15]): 12.9%; ED50 (Mus musculus [17]): 11.9 mg/kg; BWLmax (Mus musculus [18]): 2%; Mortality (Mus musculus [19]): 0; BWLmax (Mus musculus [20]): <0%; Mortality (Mus musculus [21]): 0; ED50 (Mus musculus [22]): 11 mg/kg; BWLmax (Mus musculus [23]): 3.8% |
| CC(=O)O[C@@]12CO[C@@H]1CC[C@@]1(C)[C@@H]3O[C@H](CN4CCOCC4)O[C@@H]3C3=C(C)[C@@H](OC(=O)[C@H](O)[C@@H](NC(=O)OC(C)(C)C)c4nccs4)C[C@@](O)([C@@H](OCc4ccccc4)[C@@H]12)C3(C)C | 0.12 (≈ 0.134 nM) | 0.06 (≈ 0.0668 nM) | 1.37 (≈ 1.53 nM) | 0.13 (≈ 0.145 nM) | 19.7 (≈ 21.9 nM) | 77.9 | 79.1 | 0 | 0 | 0 | 85.7 | 8.8 | 97 | 0 | 0 | 1.5 | IR (Mus musculus [30]): 96.9%; IR (Mus musculus [31]): 98.3%; IR (Mus musculus [32]): 97.8%; BWLmax (Mus musculus [33]): 10%; ED50 (Mus musculus [34]): 17.8 mg/kg; Mortality (Mus musculus [35]): 2; ED50 (Mus musculus [36]): 26.7 mg/kg; Mortality (Mus musculus [37]): 6; BWLmax (Mus musculus [38]): <0%; BWLmax (Mus musculus [39]): 7.1%; BWLmax (Mus musculus [40]): <0%; Mortality (Mus musculus [41]): 0; BWLmax (Mus musculus [42]): 15% |
| CC(=O)O[C@@]12CO[C@@H]1C[C@H](O)[C@@]1(C)C(=O)[C@H](O)C3=C(C)[C@@H](OC(=O)[C@H](O)[C@@H](NC(=O)OC(C)(C)C)c4ccccc4)C[C@@](O)([C@@H](OCc4ccccc4)[C@H]21)C3(C)C | 0.26 (≈ 0.327 nM) | 0.78 (≈ 0.982 nM) | 62.1 (≈ 78.2 nM) | 19.1 (≈ 24.1 nM) | 442 (≈ 557 nM) | – | – | – | – | – | – | – | – | – | – | – | IR (Mus musculus [43]): 6.2%; IR (Mus musculus [44]): 95.1%; BWLmax (Mus musculus [45]): <0%; Mortality (Mus musculus [46]): 0; BWLmax (Mus musculus [47]): <0%; Mortality (Mus musculus [48]): 0 |
| CC(=O)O[C@@]12CO[C@@H]1CC[C@@]1(C)[C@@H]3O[C@H](CNC4CCC4)O[C@@H]3C3=C(C)[C@@H](OC(=O)[C@H](O)[C@@H](NC(=O)OC(C)(C)C)c4ccccn4)C[C@@](O)([C@@H](OCc4ccccc4)[C@@H]12)C3(C)C | 0.83 (≈ 0.947 nM) | 0.56 (≈ 0.639 nM) | 4.88 (≈ 5.57 nM) | 1.45 (≈ 1.66 nM) | 81.7 (≈ 93.3 nM) | – | – | – | – | – | – | – | – | – | – | – | ED50 (B16 [49]): 7.9 mg/kg; ED50 (Mus musculus [50]): 27.6 mg/kg |
